Measured values reported in US20260365628A1, “SUBSTITUTED 3,4-DIHYDROQUINOLINONE INHIBITORS OF TSHR” (Septerna, Inc., priority 2022, published 2026).

target: T1, hTSHR (Homo sapiens, UniProt P16473); assay: hTSHR TR-FRET cAMP Assay (inhibition of M22-stimulated cAMP production); type: cell-based; settings: not given
T1 construct: expressed in transfected cells
Outline: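 Readout was a cAMP HTRF ratio of 655/620 nm after lysis, scaled between the EC80 M22 signal (0% inhibition) and no-agonist vehicle (100%). Frozen induced Expi293F-hTSHR cells saw test compounds (0.5% DMSO) for 15 min at 37 °C before 30 min of M22 stimulation at EC80.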

T1 sequence (P16473 21-764): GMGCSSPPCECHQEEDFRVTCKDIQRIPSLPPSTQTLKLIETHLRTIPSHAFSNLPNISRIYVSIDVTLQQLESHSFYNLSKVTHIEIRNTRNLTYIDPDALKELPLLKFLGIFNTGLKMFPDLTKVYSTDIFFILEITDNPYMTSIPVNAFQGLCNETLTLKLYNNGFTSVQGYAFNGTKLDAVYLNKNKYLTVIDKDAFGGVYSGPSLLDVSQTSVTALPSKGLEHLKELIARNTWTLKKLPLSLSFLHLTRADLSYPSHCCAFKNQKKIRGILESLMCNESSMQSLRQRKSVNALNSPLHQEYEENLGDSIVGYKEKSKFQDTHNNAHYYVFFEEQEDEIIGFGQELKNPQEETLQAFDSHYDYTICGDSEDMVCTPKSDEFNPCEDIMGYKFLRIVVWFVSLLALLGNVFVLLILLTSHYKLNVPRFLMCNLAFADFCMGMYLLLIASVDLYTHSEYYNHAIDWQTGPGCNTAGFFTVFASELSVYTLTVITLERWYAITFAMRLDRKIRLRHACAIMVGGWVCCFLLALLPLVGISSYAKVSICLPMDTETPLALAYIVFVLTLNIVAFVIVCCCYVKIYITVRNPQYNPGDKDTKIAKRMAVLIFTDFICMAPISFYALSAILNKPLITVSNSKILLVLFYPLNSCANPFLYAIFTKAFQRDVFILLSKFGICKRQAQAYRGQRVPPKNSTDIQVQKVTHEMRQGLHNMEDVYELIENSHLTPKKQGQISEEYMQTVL

| IC50 [nM] | Compound |
| --- | --- |
| 100 to 1000 | C[C@@H](c1cccc(-c2ccccc2)c1)n1c(=O)cnc2cc(NC(=O)NC(C)(C)C)ccc21 [Example 112, (S)-1-(1-(1-([1,1′-biphenyl]-3-yl)ethyl)-2-oxo-1,2-dihydroquinoxalin-6-yl)-3-(tert-butyl)urea] |

same assay, conditions: Expi293F Inducible cells stably expressing hTSHR; cAMP HTRF; stimulated with EC80 of anti-TSHR antibody M22; 15 min compound preincubation, 30 min at 37° C.; read-out: Activity (IC50 bins)

| IC50 [nM] | Compound |
| --- | --- |
| 100 to 1000 | CC(C)(C)NC(=O)Nc1ccc2c(c1)ncc(=O)n2Cc1cccc(CCCC(F)(F)F)n1 [Example 95, 1-(tert-butyl)-3-(2-oxo-1-((6-(4,4,4-trifluoro-butyl)pyri-din-2-yl)methyl)-1,2-dihydro-quinoxalin-6-yl)urea] |
| 100 to 1000 | CC(C)(C)NC(=O)Nc1ccc2c(c1)ncc(=O)n2Cc1cccc2c1OCCC2 [Example 96, 1-(tert-buty1)-3-(1-(chroman-8-ylmethyl)-2-oxo-1,2-dihydro-quinoxalin-6-yl)urea] |
| 100 to 1000 | CC(C)(C)NC(=O)Nc1ccc2c(c1)ncc(=O)n2Cc1cccc2c1CCCO2 [Example 97, 1-(tert-butyl)-3-(1-(chroman-5-ylmethyl)-2-oxo-1,2-di-hydro-quinoxalin-6-yl)urea] |
| 100 to 1000 | C[C@@H](c1ccccc1)n1c(=O)cnc2cc(NC(=O)NC(C)(C)C)ccc21 [Example 98, (S)-1-(tert-butyl)-3-(2-oxo-1-(1-phenylethyl)-1,2-dihydroquinoxalin-6-yl)urea] |
| 100 to 1000 | C[C@@H](c1cccc(C(F)(F)F)c1)n1c(=O)cnc2cc(NC(=O)NC(C)(C)C)ccc21 [Example 99, (S)-1-(tert-butyl)-3-(2-oxo-1-(1-(3-(trifluoromethyl)phenyl)ethyl)-1,2-dihydroquinoxalin-6-yl)urea] |
| < 100 | C[C@@H](c1cccc(OC(F)(F)F)c1)n1c(=O)cnc2cc(NC(=O)NC(C)(C)C)ccc21 [Example 100, (S)-1-(tert-butyl)-3-(2-oxo-1-(1-(3-(trifluoromethoxy)phe-nyl)ethyl)-1,2-dihydroquinoxalin-6-yl)urea] |
| 100 to 1000 | C[C@@H](c1cc(Cl)cc(Cl)c1)n1c(=O)cnc2cc(NC(=O)NC(C)(C)C)ccc21 [Example 101, (S)-1-(tert-butyl)-3-(1-(1-(3,5-dichlorophenyl)ethyl)-2-oxo-1,2-dihydroquinoxalin-6-yl)urea] |
| 100 to 1000 | C[C@@H](c1cccc(CC(F)(F)F)c1)n1c(=O)cnc2cc(NC(=O)NC(C)(C)C)ccc21 [Example 102, (S)-1-(tert-butyl)-3-(2-oxo-1-(1-(3-(2,2,2-trifluoroethyl)phe-nyl)ethyl)-1,2-dihydroquinoxalin-6-yl)urea] |
| 100 to 1000 | C[C@@H](c1cccc(C(F)(F)F)n1)n1c(=O)cnc2cc(NC(=O)NC(C)(C)C)ccc21 [Example 103, (S)-1-(tert-butyl)-3-(2-oxo-1-(1-(6-(tri-fluoromethyl)pyridin-2-yl)ethyl)-1,2-dihydroquinoxalin-6-yl)urea] |
| 100 to 1000 | C[C@@H](c1cc(OC(F)(F)F)ccc1F)n1c(=O)cnc2cc(NC(=O)NC(C)(C)C)ccc21 [Example 104, (S)-1-(tert-butyl)-3-(1-(1-(2-fluoro-5-(trifluoromethoxy)phe-nyl)ethyl)-2-oxo-1,2-dihydroquinoxalin-6-yl)urea] |
| < 100 | C[C@@H](c1ccc(F)c(OC(F)(F)F)c1)n1c(=O)cnc2cc(NC(=O)NC(C)(C)C)ccc21 [Example 105, (S)-1-(tert-buty1)-3-(1-(1-(4-fluoro-3-(trifluoromethoxy)phe-nyl)ethyl)-2-oxo-1,2-dihydroquinoxalin-6-yl)urea] |
| 100 to 1000 | C[C@@H](c1cccc(OC(F)(F)F)n1)n1c(=O)cnc2cc(NC(=O)NC3(C)CCC3)ccc21 [Example 106, (S)-1-(1-methylcyclobutyl)-3-(2-oxo-1-(1-(6-(trifluoromethoxy)pyri-din-2-yl)ethyl)-1,2-dihydroquinoxalin-6-yl)urea] |
| 100 to 1000 | CC(C)CCc1cccc([C@H](C)n2c(=O)cnc3cc(NC(=O)NC(C)(C)C)ccc32)c1 [Example 107, (S)-1-(tert-butyl)-3-(1-(1-(3-isopentylphenyl)ethyl)-2-oxo-1,2-dihydroquinoxalin-6-yl)urea] |
| 100 to 1000 | C[C@@H](c1cccc(CCCC(F)(F)F)c1)n1c(=O)cnc2cc(NC(=O)NC(C)(C)C)ccc21 [Example 108, (S)-1-(tert-butyl)-3-(2-oxo-1-(1-(3-(4,4,4-trifluorobutyl)phenyl)ethyl)-1,2-dihydroquinoxalin-6-yl)urea] |
| 100 to 1000 | C[C@@H](c1cccc(OCCC(F)(F)F)c1)n1c(=O)cnc2cc(NC(=O)NC(C)(C)C)ccc21 [Example 109, (S)-1-(tert-butyl)-3-(2-oxo-1-(1-(3-(3,3,3-trifluoropropoxy)phenyl)ethyl)-1,2-dihydroquinoxalin-6-yl)urea] |
| 100 to 1000 | C[C@@H](c1cccc(CCOC(F)(F)F)c1)n1c(=O)cnc2cc(NC(=O)NC(C)(C)C)ccc21 [Example 110, (S)-1-(tert-butyl)-3-(2-oxo-1-(1-(3-(2-(tri-fluoromethoxy)ethyl)phenyl)ethyl)-1,2-dihydroquinoxalin-6-yl)urea] |
| > 1000 | C[C@@H](c1cccc(OC2CCCC2)c1)n1c(=O)cnc2cc(NC(=O)NC(C)(C)C)ccc21 [Example 111, (S)-1-(tert-butyl)-3-(1-(1-(3-(cyclo-pentyloxy)phenyl)ethyl)-2-oxo-1,2-dihydroquinoxalin-6-yl)urea] |

| IC50 [nM] | Compound |
| --- | --- |
| > 1000 | C[C@@H](c1cccc(C#CC(C)(C)O)c1)n1c(=O)cnc2cc(NC(=O)NC(C)(C)C)ccc21 [Example 113, (S)-1-(tert-butyl)-3-(1-(1-(3-(3-hydroxy-3-methylbut-1-yn-1-yl)phenyl)ethyl)-2-oxo-1,2-dihydroquinoxalin-6-yl)urea] |
| 100 to 1000 | C[C@@H](c1cccc(Oc2ccccc2)c1)n1c(=O)cnc2cc(NC(=O)NC(C)(C)C)ccc21 [Example 114, (S)-1-(tert-butyl)-3-(2-oxo-1-(1-(3-phenoxyphenyl)ethyl)-1,2-dihydroquinoxalin-6-yl)urea] |
| 100 to 1000 | C[C@@H](c1cccc(OC2CCCCC2)c1)n1c(=O)cnc2cc(NC(=O)NC(C)(C)C)ccc21 [Example 115, (S)-1-(tert-butyl)-3-(1-(1-(3-(cyclohexyloxy)phenyl)ethyl)-2-oxo-1,2-dihydroquinoxalin-6-yl)urea] |
| > 1000 | C[C@@H](c1cccc(CCC(C)(C)O)c1)n1c(=O)cnc2cc(NC(=O)NC(C)(C)C)ccc21 [Example 116, (S)-1-(tert-butyl)-3-(1-(1-(3-(3-hydroxy-3-methylbutyl)phenyl)ethyl)-2-oxo-1,2-dihydroquinoxalin-6-yl)urea] |
| > 1000 | C[C@@H](c1cccc(OCC2CCOCC2)c1)n1c(=O)cnc2cc(NC(=O)NC(C)(C)C)ccc21 [Example 117, (S)-1-(tert-butyl)-3-(2-oxo-1-(1-(3-((tetrahydro-2H-pyran-4-yl)methoxy)phenyl)eth-yl)-1,2-dihydroquinoxalin-6-yl)urea] |
| > 1000 | C[C@@H](c1cccc(CCCC(C)(C)O)c1)n1c(=O)cnc2cc(NC(=O)NC(C)(C)C)ccc21 [Example 118, (S)-1-(tert-butyl)-3-(1-(1-(3-(4-hydroxy-4-methylpentyl)phenyl)ethyl)-2-oxo-1,2-dihydroquinoxalin-6-yl)urea] |
| > 1000 | C[C@@H](c1cccc(CCOc2cn[nH]c2)c1)n1c(=O)cnc2cc(NC(=O)NC(C)(C)C)ccc21 [Example 119, (S)-1-(1-(1-(3-(2-((1H-pyrazol-4-yl)oxy)ethyl)phenyl)ethyl)-2-oxo-1,2-dihydroquinoxalin-6-yl)-3-(tert-butyl)urea] |
| > 1000 | C[C@@H](c1cccc(CCN(C)C(=O)C(C)(C)O)c1)n1c(=O)cnc2cc(NC(=O)NC(C)(C)C)ccc21 [Example 120, (S)-N-(3-(1-(6-(3-(tert-butyl)ureido)-2-oxoquinoxalin-1 (2H)-yl)ethyl)phenethyl)-2-hydroxy-N,2-dimethylpropanamide] |
| > 1000 | C[C@@H](c1cccc(CCOCC(C)(C)O)c1)n1c(=O)cnc2cc(NC(=O)NC(C)(C)C)ccc21 [Example 121, (S)-1-(tert-butyl)-3-(1-(1-(3-(2-(2-hydroxy-2-methylpropoxy)ethyl)phenyl)ethyl)-2-oxo-1,2-dihydroquinoxalin-6-yl)urea] |
| 100 to 1000 | C[C@@H](c1cccc(C(F)F)c1)n1c(=O)cnc2cc(NC(=O)NC(C)(C)C)ccc21 [Example 122, (S)-1-(tert-butyl)-3-(1-(1-(3-(difluoro-methyl)phenyl)ethyl)-2-oxo-1,2-dihydroquinoxalin-6-yl)urea] |
| 100 to 1000 | C[C@@H](c1cccc2c1COCC2)n1c(=O)cnc2cc(NC(=O)NC(C)(C)C)ccc21 [Example 123, (S)-1-(tert-butyl)-3-(1-(1-(isochroman-8-yl)ethyl)-2-oxo-1,2-dihydroquinoxalin-6-yl)urea] |
| > 1000 | C[C@@H](c1cccc2c1CCOC2)n1c(=O)cnc2cc(NC(=O)NC(C)(C)C)ccc21 [Example 124, (S)-1-(tert-butyl)-3-(1-(1-(isochroman-5-yl)ethyl)-2-oxo-1,2-dihydroquinoxalin-6-yl)urea] |
| 100 to 1000 | C[C@@H](c1cccc2c1CCC2)n1c(=O)cnc2cc(NC(=O)NC(C)(C)C)ccc21 [Example 125, (S)-1-(tert-butyl)-3-(1-(1-(2,3-dihydro-1H-inden-4-yl)ethyl)-2-oxo-1,2-dihydroquinoxalin-6-yl)urea] |
| > 1000 | C[C@@H](c1cccc2ccncc12)n1c(=O)cnc2cc(NC(=O)NC(C)(C)C)ccc21 [Example 126, (S)-1-(tert-butyl)-3-(1-(1-(isoquinolin-8-yl)ethyl)-2-oxo-1,2-dihydroquinoxalin-6-yl)urea] |
| 100 to 1000 | C[C@@H](c1cccc(N2CCCCC2)c1)n1c(=O)cnc2cc(NC(=O)NC(C)(C)C)ccc21 [Example 127, (S)-1-(tert-butyl)-3-(2-oxo-1-(1-(3-(piperidin-1-yl)phenyl)ethyl)-1,2-dihydroquinoxalin-6-yl)urea] |
| 100 to 1000 | C[C@@H](c1cccc(OC(F)F)c1)n1c(=O)cnc2cc(NC(=O)NC(C)(C)C)ccc21 [Example 128, (S)-1-(tert-butyl)-3-(1-(1-(3-(difluoromethoxy)phe-nyl)ethyl)-2-oxo-1,2-dihydroquinoxalin-6-yl)urea] |
